Test results published in patent US11248234B2, “Herbicide-resistant hydroxyphenylpyruvate dioxygenases” (BASF SE, priority 2015, dated 2022).

Experiments:
Test in all cases: Greenhouse spray test, injury evaluation
Assay type in all cases: in vivo, Arabidopsis thaliana
[1] = test system: transgenic Arabidopsis plants (T2) SoHPPD I419V (short); conditions: 14 DAT
Description: (§1) Non-transgenic control plants were treated in parallel and pictures taken 14 days after treatment.
(§2) For post emergence treatment, the test plants are first grown to a height of 3 to 15 cm, depending on the plant habit, and only then treated with the herbicides. For this purpose, the test plants are either sown directly and grown in the same containers, or they are first grown separately and transplanted into the test containers a few days prior to treatment.
(§3) Additionally, T1 and T2 transgenic Arabidopsis plants can be tested for improved tolerance to HPPD-inhibiting herbicides in greenhouse studies. Herbicide injury scoring is done 2-3 weeks after treatment and is rated on a scale of 0 to 100%, 0% being no injury and 100% being complete death.
(§4) Transgenic T2 Arabidopsis plants were sprayed with a range of doses from 1.56-25 g/ha of different HPPD-inhibiting herbicides and injury evaluations were taken two weeks after treatment (FIG. 4). As depicted in Table 8, control plants were severely injured by all doses of herbicides applied, with at least 58% of leaf material being damaged at the lowest application rate and 100% leaf damage at the second application rate.

[2] = test system: WT (non-transgenic control) Arabidopsis plants; conditions: 14 DAT
Description: as §1, §2, §3, §4

[3] = test system: transgenic Arabidopsis plants (T2) SoHPPD F363I (short); conditions: for Injury: 14 DAT; for average damage: highest application rate, average of events
Description: as §1, §2, §3, §4

[4] = test system: transgenic Arabidopsis plants (T2) SoHPPD Q317H (short); conditions: 14 DAT
Description: as §1, §2, §3, §4

SMILES | Injury ([1]; Event G, 1.56 g ai/ha) [%] | Injury ([1]; Event G, 6.25 g ai/ha) [%] | Injury ([1]; Event G, 25 g ai/ha) [%] | Injury ([1]; Event H, 1.56 g ai/ha) [%] | Injury ([1]; Event H, 6.25 g ai/ha) [%] | Injury ([1]; Event H, 25 g ai/ha) [%] | Injury ([2]; 1.56 g ai/ha) [%] | Injury ([2]; 6.25 g ai/ha) [%] | Injury ([2]; 25 g ai/ha) [%] | Injury ([3]; Event B, 1.56 g ai/ha) [%] | Injury ([3]; Event B, 6.25 g ai/ha) [%] | Injury ([3]; Event B, 25 g ai/ha) [%] | Injury ([3]; Event C, 1.56 g ai/ha) [%] | Injury ([3]; Event C, 6.25 g ai/ha) [%] | Injury ([3]; Event C, 25 g ai/ha) [%] | average damage [3] | Injury ([4]; Event B, 1.56 g ai/ha) [%] | Injury ([4]; Event B, 6.25 g ai/ha) [%] | Injury ([4]; Event B, 25 g ai/ha) [%] | Injury ([4]; Event C, 1.56 g ai/ha) [%] | further results
CSc1c(Cl)cc(F)c(C(=O)Nc2nnnn2C)c1Cl [Inhibitor 7, 2,4-dichloro-6-fluoro-3-methylsulfanyl-N-(1-methyltetrazol-5-yl)benzamide] | 0 | 28 | 40 | 5 | 53 | 93 | 88 | 100 | 100 | 0 | 5 | 0 | 0 | 0 | 0 | no damage | 0 | 18 | 78 | 0 | Injury ([4]; Event C, 6.25 g ai/ha): 8%; Injury ([4]; Event C, 25 g ai/ha): 73%
CSc1c(C(F)(F)F)ccc(C(=O)Nc2nnnn2C)c1Cl [Inhibitor 11, 2-chloro-3-methylsulfanyl-N-(1-methyltetrazol-5-yl)-4-(trifluoromethyl)benzamide] | 58 | 83 | 100 | 43 | 100 | 100 | 100 | 100 | 100 | 0 | 0 | 15 | 8 | 0 | 5 | 10% | 40 | 99 | 100 | 15 | Injury ([4]; Event C, 6.25 g ai/ha): 79%; Injury ([4]; Event C, 25 g ai/ha): 100%
